Settings: in vivo, iv
Source text: The present invention thus provides novel and non-obvious antimicrobial polyamide compositions, and methods of using same for treating and preventing mastitis in non-human animals. The methods generally comprise administering to an infected animal an effective amount of the veterinary composition to eliminate or cure, completely or substantially, mastitis-causing pathogen(s).

poly (4,4′-trimethylene dipiperidine bispropanoic acid-co-1,3-diamino propane)
maximum tolerated dose: ~40 mg/kg

From US10131744B2, “Antimicrobial polyamide compositions and mastitis treatment” (priority 2013, dated 2018)
